Literature values, collected in patent US11642371B2, “Encapsulated antimicrobials and related methods of treatment” (ADVANTAGE SILVER DENTAL ARREST, LLC, priority 2018, dated 2023).

Test system: dentinal caries lesions
Conditions: lesions that had progressed into the dentin

In the case of Silver diamine fluoride [SDF], the “dentinal caries lesions found to be arrested after treatment” value is listed as “two-thirds”.
